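A five-concentration, 48-hour dose response in 96-well plates underlies each endpoint, interpolated linearly between surrounding concentrations. The concentration for full growth arrest is given as TGI.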
Legend:
Assay in all cases: NCI tumour cell line growth inhibition, 48 h
786-0 renal = system: 786-0 renal
A498 renal = system: A498 renal
A549 NSCLC = system: A549 NSCLC
ACHN renal = system: ACHN renal
CCRF-CEM leukemia = system: CCRF-CEM leukemia
COLO 205 colon = system: COLO 205 colon
DLD-1 colon = system: DLD-1 colon
DMS 114 small cell lung = system: DMS 114 small cell lung
DMS 273 small cell lung = system: DMS 273 small cell lung
EKVX NSCLC = system: EKVX NSCLC
HCC-2998 colon = system: HCC-2998 colon
HCT-116 colon = system: HCT-116 colon
HL-60(TB) leukemia = system: HL-60(TB) leukemia
HOP-18 NSCLC = system: HOP-18 NSCLC
HOP-62 NSCLC = system: HOP-62 NSCLC
HT29 colon = system: HT29 colon
IGROV1 ovarian = system: IGROV1 ovarian
K-562 leukemia = system: K-562 leukemia
KM12 colon = system: KM12 colon
KM20L2 colon = system: KM20L2 colon
LOX IMVI melanoma = system: LOX IMVI melanoma
LXFL 529 NSCLC = system: LXFL 529 NSCLC
M14 melanoma = system: M14 melanoma
M19-MEL melanoma = system: M19-MEL melanoma
MALME-3M melanoma = system: MALME-3M melanoma
MOLT-4 leukemia = system: MOLT-4 leukemia
NCI-H226 lung = system: NCI-H226 lung
NCI-H23 lung = system: NCI-H23 lung
NCI-H460 lung = system: NCI-H460 lung
NCI-H522 lung = system: NCI-H522 lung
OVCAR-3 ovarian = system: OVCAR-3 ovarian
OVCAR-4 ovarian = system: OVCAR-4 ovarian
OVCAR-5 ovarian = system: OVCAR-5 ovarian
OVCAR-8 ovarian = system: OVCAR-8 ovarian
RXF 393 renal = system: RXF 393 renal
RXF-631 renal = system: RXF-631 renal
SF-268 CNS = system: SF-268 CNS
SF-539 CNS = system: SF-539 CNS
SK-MEL-2 melanoma = system: SK-MEL-2 melanoma
SK-MEL-28 melanoma = system: SK-MEL-28 melanoma
SK-MEL-5 melanoma = system: SK-MEL-5 melanoma
SK-OV-3 ovarian = system: SK-OV-3 ovarian
SN12C renal = system: SN12C renal
SNB-19 CNS = system: SNB-19 CNS
SNB-75 CNS = system: SNB-75 CNS
SNB-78 CNS = system: SNB-78 CNS
SR leukemia = system: SR leukemia
SW-620 colon = system: SW-620 colon
TK-10 renal = system: TK-10 renal
U251 CNS = system: U251 CNS
UACC-257 melanoma = system: UACC-257 melanoma
UACC-62 melanoma = system: UACC-62 melanoma
UO-31 renal = system: UO-31 renal
HOP-92 NSCLC = system: HOP-92 NSCLC
RPMI-8226 leukemia = system: RPMI-8226 leukemia
SF-295 CNS = system: SF-295 CNS
XF 498 CNS = system: XF 498 CNS

For `c1ccc(-c2ccnc3c2ccc2c(-c4ccccc4)ccnc23)cc1`, the TGI (786-0 renal) was 10.4 µM, the TGI (A498 renal) was 6.99 µM and the TGI (A549 NSCLC) was 8.71 µM. The TGI (ACHN renal) was 9.45 µM, the TGI (CCRF-CEM leukemia) was 2.84 µM and the TGI (COLO 205 colon) was 6.71 µM. For the same compound, the TGI (DLD-1 colon) was 15.3 µM, the TGI (DMS 114 small cell lung) was 12.7 µM and the TGI (DMS 273 small cell lung) was 9.5 µM. The TGI (EKVX NSCLC) was 5.53 µM, the TGI (HCC-2998 colon) was 14.3 µM and the TGI (HCT-116 colon) was 10.4 µM. It also gave a TGI (HL-60(TB) leukemia) of 3.69 µM, a TGI (HOP-18 NSCLC) of 11.4 µM and a TGI (HOP-62 NSCLC) of 7.86 µM. For the same compound, the TGI (HT29 colon) was 10.8 µM, the TGI (IGROV1 ovarian) was 18.2 µM and the TGI (K-562 leukemia) was 11.4 µM. It also gave a TGI (KM12 colon) of 10.2 µM, a TGI (KM20L2 colon) of 16.5 µM and a TGI (LOX IMVI melanoma) of 14.8 µM. It also gave a TGI (LXFL 529 NSCLC) of 11.5 µM, a TGI (M14 melanoma) of 17.6 µM and a TGI (M19-MEL melanoma) of 5.14 µM. For the same compound, the TGI (MALME-3M melanoma) was 13.5 µM, the TGI (MOLT-4 leukemia) was 2.93 µM and the TGI (NCI-H226 lung) was 4.76 µM. It also gave a TGI (NCI-H23 lung) of 14.1 µM, a TGI (NCI-H460 lung) of 7.28 µM and a TGI (NCI-H522 lung) of 5.92 µM. For the same compound, the TGI (OVCAR-3 ovarian) was 10.1 µM, the TGI (OVCAR-4 ovarian) was 12.7 µM and the TGI (OVCAR-5 ovarian) was 11.8 µM. For the same compound, the TGI (OVCAR-8 ovarian) was 4.75 µM, the TGI (RXF 393 renal) was 6.05 µM and the TGI (RXF-631 renal) was 6.19 µM. It also gave a TGI (SF-268 CNS) of 13.3 µM, a TGI (SF-539 CNS) of 5.62 µM and a TGI (SK-MEL-2 melanoma) of 11.4 µM. It also gave a TGI (SK-MEL-28 melanoma) of 19.9 µM, a TGI (SK-MEL-5 melanoma) of 11.2 µM and a TGI (SK-OV-3 ovarian) of 11.6 µM. For the same compound, the TGI (SN12C renal) was 6.54 µM, the TGI (SNB-19 CNS) was 13.9 µM and the TGI (SNB-75 CNS) was 9.43 µM. The TGI (SNB-78 CNS) was 18 µM, the TGI (SR leukemia) was 1.29 µM and the TGI (SW-620 colon) was 15 µM. The TGI (TK-10 renal) was 0.994 µM, the TGI (U251 CNS) was 6.79 µM and the TGI (UACC-257 melanoma) was 5.5 µM. The TGI (UACC-62 melanoma) was 2.25 µM and the TGI (UO-31 renal) was 4.91 µM.

Work on `C/C(CC(=O)Nc1cccc([N+](=O)[O-])c1)=N\NC(=O)CC#N` yielded a TGI (786-0 renal) of over 100 µM, a TGI (A549 NSCLC) of over 100 µM and a TGI (CCRF-CEM leukemia) of over 100 µM. For the same compound, the TGI (COLO 205 colon) was over 100 µM, the TGI (DLD-1 colon) was over 100 µM and the TGI (DMS 114 small cell lung) was over 100 µM. For the same compound, the TGI (DMS 273 small cell lung) was over 100 µM, the TGI (EKVX NSCLC) was over 100 µM and the TGI (HCC-2998 colon) was over 100 µM. For the same compound, the TGI (HCT-116 colon) was over 100 µM, the TGI (HL-60(TB) leukemia) was over 100 µM and the TGI (HOP-62 NSCLC) was over 100 µM. The TGI (HOP-92 NSCLC) was over 100 µM, the TGI (HT29 colon) was over 100 µM and the TGI (IGROV1 ovarian) was over 100 µM. The TGI (K-562 leukemia) was over 100 µM, the TGI (KM12 colon) was over 100 µM and the TGI (KM20L2 colon) was over 100 µM. The TGI (LOX IMVI melanoma) was over 100 µM, the TGI (LXFL 529 NSCLC) was over 100 µM and the TGI (M14 melanoma) was over 100 µM. For the same compound, the TGI (MALME-3M melanoma) was over 100 µM, the TGI (MOLT-4 leukemia) was over 100 µM and the TGI (NCI-H226 lung) was over 100 µM. The TGI (NCI-H23 lung) was over 100 µM, the TGI (NCI-H522 lung) was over 100 µM and the TGI (OVCAR-3 ovarian) was over 100 µM. The TGI (OVCAR-5 ovarian) was over 100 µM, the TGI (OVCAR-8 ovarian) was over 100 µM and the TGI (RPMI-8226 leukemia) was over 100 µM. It also gave a TGI (RXF 393 renal) of over 100 µM, a TGI (RXF-631 renal) of over 100 µM and a TGI (SF-268 CNS) of over 100 µM. It also gave a TGI (SF-295 CNS) of over 100 µM, a TGI (SF-539 CNS) of over 100 µM and a TGI (SK-MEL-2 melanoma) of over 100 µM. For the same compound, the TGI (SK-MEL-28 melanoma) was over 100 µM, the TGI (SK-MEL-5 melanoma) was over 100 µM and the TGI (SK-OV-3 ovarian) was over 100 µM. For the same compound, the TGI (SNB-75 CNS) was over 100 µM, the TGI (SNB-78 CNS) was over 100 µM and the TGI (SW-620 colon) was over 100 µM. The TGI (TK-10 renal) was over 100 µM, the TGI (U251 CNS) was over 100 µM and the TGI (UACC-257 melanoma) was over 100 µM. The TGI (UACC-62 melanoma) was over 100 µM, the TGI (UO-31 renal) was over 100 µM and the TGI (XF 498 CNS) was over 100 µM.

Reference: PubChem BioAssay (NCI)
